From article PMC5862592, “CDK8/19 inhibition induces premature G1/S transition and ATR-dependent cell death in prostate cancer cells” (Oncotarget, 2018)
Where two headings read alike, the source gives them in different places.

How the values were obtained:
Assay in all cases: biochemical
Set-up in all cases: KINOMEscan active site-directed competition binding assay (DiscoveRx), 456 kinases, per cent of control at 300 nM
Details in all cases: read-out: Percent of Control (%)
AAK1 = AAK1 (Homo sapiens, UniProt Q2M2I8)
Outline: (§1)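 Values reflect active-site competition binding from a screen of 456 kinases, with test compounds at a fixed 300 nmol/L.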

[1] = biological target: T1, ABL1(F317L)-nonphosphorylated (Homo sapiens, UniProt P00519, F317L)
T1 construct: nonphosphorylated
Outline: as §1

DDR2 = DDR2 (Homo sapiens, UniProt Q16832)
Outline: as §1

DRAK1 = biological target: T2, DRAK1 (Homo sapiens, UniProt Q9UEE5)
T2 construct: gene STK17A
Outline: as §1

ERBB3 = ERBB3 (Homo sapiens, UniProt P21860)
Outline: as §1

FGFR4 = FGFR4 (Homo sapiens, UniProt P22455)
Outline: as §1

FGR = FGR (Homo sapiens, UniProt P09769)
Outline: as §1

FYN = FYN (Homo sapiens, UniProt P06241)
Outline: as §1

LATS1 = LATS1 (Homo sapiens, UniProt O95835)
Outline: as §1

MKNK1 = MKNK1 (Homo sapiens, UniProt Q9BUB5)
Outline: as §1

PAK1 = PAK1 (Homo sapiens, UniProt Q13153)
Outline: as §1

PHKG2 = PHKG2 (Homo sapiens, UniProt P15735)
Outline: as §1

PIK3CA(I800L) = PIK3CA(I800L) (Homo sapiens, UniProt P42336, I800L)
Outline: as §1

PIP5K2C = biological target: T3, PIP5K2C (Homo sapiens, UniProt Q8TBX8)
T3 construct: gene PIP4K2C
Outline: as §1

PRKD1 = PRKD1 (Homo sapiens, UniProt Q15139)
Outline: as §1

RET(V804M) = RET(V804M) (Homo sapiens, UniProt P07949, V804M)
Outline: as §1

[2] = biological target: T4, RPS6KA5(Kin.Dom.1-N-terminal) (Homo sapiens, UniProt O75582)
T4 construct: Kin.Dom.1-N-terminal
Outline: as §1

STK35 = STK35 (Homo sapiens, UniProt Q8TDR2)
Outline: as §1

TGFBR1 = TGFBR1 (Homo sapiens, UniProt P36897)
Outline: as §1

TRKB = biological target: T5, TRKB (Homo sapiens, UniProt Q16620)
T5 construct: gene NTRK2
Outline: as §1

TXK = TXK (Homo sapiens, UniProt P42681)
Outline: as §1

WNK3 = WNK3 (Homo sapiens, UniProt Q9BYP7)
Outline: as §1

Chain of PRKD1 (Q15139 whole entry): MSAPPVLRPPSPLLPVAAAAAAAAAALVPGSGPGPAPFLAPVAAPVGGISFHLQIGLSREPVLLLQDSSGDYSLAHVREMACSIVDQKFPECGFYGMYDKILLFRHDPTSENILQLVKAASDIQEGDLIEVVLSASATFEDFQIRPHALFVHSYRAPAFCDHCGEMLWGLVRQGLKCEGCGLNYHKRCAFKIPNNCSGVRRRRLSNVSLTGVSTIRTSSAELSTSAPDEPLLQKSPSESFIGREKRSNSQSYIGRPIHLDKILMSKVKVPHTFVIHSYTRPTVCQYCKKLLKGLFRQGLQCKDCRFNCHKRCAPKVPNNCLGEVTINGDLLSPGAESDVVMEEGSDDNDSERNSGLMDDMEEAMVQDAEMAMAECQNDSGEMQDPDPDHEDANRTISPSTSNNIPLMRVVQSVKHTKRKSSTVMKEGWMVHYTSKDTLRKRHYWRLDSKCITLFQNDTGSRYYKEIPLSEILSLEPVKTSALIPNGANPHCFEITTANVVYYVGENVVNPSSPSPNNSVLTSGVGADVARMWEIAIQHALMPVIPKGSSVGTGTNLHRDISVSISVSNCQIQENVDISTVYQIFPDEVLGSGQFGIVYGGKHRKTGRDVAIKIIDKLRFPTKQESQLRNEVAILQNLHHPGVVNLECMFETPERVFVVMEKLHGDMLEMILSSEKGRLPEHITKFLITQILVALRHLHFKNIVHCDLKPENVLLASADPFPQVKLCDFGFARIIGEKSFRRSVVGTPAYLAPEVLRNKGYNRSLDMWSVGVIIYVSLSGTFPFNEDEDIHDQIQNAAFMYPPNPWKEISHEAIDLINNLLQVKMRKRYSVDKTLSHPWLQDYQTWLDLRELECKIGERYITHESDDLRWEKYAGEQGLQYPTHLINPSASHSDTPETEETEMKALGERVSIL
Chain of FYN (P06241 whole entry): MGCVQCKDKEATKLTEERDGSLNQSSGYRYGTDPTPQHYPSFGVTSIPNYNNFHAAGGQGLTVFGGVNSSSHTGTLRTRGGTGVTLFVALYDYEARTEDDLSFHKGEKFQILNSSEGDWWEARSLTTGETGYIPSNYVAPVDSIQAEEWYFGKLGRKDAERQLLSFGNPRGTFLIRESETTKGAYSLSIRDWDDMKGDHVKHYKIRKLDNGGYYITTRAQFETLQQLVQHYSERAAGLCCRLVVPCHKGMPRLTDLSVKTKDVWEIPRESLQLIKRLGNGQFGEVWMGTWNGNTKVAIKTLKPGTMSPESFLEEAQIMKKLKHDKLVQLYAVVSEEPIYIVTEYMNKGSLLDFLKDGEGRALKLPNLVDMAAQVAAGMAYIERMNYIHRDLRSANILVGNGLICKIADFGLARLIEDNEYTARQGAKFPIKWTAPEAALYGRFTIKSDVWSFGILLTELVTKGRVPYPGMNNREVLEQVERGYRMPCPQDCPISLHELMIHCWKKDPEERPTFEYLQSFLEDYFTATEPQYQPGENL
Chain of FGFR4 (P22455 whole entry): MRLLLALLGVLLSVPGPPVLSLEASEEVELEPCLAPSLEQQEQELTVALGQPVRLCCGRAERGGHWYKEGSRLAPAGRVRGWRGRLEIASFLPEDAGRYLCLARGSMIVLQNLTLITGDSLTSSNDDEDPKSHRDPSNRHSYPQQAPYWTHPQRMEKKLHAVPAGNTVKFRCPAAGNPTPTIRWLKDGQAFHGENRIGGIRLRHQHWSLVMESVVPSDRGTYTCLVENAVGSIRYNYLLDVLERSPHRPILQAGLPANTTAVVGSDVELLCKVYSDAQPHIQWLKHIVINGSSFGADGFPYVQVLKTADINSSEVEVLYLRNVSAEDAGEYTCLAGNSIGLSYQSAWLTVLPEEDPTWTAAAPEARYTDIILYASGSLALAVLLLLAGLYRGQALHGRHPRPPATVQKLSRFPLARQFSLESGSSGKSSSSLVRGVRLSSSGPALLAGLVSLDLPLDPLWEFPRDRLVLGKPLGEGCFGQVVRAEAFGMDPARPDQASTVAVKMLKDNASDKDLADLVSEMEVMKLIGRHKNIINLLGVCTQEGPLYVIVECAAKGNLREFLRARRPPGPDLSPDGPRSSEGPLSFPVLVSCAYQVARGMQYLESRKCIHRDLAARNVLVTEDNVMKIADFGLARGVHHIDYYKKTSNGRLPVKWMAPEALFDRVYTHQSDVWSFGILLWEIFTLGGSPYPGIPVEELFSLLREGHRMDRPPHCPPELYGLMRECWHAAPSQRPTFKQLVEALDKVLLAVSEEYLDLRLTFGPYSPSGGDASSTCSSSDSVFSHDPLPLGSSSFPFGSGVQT
Chain of AAK1 (Q2M2I8 whole entry): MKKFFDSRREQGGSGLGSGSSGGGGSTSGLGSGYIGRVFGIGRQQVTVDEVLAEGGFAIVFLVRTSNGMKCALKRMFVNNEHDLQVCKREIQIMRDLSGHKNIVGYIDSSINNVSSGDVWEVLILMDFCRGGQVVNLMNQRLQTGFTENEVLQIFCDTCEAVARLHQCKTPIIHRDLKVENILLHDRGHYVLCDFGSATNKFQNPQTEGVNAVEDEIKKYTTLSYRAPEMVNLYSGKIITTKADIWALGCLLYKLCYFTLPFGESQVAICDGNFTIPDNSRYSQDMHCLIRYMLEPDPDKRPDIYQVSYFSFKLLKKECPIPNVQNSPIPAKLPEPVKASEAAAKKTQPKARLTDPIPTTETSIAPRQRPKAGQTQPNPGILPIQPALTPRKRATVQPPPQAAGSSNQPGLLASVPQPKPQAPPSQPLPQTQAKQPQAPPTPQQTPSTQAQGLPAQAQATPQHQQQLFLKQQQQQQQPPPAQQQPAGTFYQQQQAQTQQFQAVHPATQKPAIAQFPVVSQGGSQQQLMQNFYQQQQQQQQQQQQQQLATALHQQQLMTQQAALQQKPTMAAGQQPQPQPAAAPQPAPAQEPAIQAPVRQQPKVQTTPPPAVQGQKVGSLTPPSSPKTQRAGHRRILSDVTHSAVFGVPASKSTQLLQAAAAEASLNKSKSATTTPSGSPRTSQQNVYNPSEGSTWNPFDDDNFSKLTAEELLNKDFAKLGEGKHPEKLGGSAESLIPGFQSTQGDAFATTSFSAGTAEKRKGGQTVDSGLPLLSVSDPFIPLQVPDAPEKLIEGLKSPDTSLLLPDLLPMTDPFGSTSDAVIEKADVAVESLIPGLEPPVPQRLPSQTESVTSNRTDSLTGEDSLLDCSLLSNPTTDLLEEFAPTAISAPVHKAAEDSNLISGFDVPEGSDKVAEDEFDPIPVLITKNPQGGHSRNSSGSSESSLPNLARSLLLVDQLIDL
Chain of TXK (P42681 whole entry): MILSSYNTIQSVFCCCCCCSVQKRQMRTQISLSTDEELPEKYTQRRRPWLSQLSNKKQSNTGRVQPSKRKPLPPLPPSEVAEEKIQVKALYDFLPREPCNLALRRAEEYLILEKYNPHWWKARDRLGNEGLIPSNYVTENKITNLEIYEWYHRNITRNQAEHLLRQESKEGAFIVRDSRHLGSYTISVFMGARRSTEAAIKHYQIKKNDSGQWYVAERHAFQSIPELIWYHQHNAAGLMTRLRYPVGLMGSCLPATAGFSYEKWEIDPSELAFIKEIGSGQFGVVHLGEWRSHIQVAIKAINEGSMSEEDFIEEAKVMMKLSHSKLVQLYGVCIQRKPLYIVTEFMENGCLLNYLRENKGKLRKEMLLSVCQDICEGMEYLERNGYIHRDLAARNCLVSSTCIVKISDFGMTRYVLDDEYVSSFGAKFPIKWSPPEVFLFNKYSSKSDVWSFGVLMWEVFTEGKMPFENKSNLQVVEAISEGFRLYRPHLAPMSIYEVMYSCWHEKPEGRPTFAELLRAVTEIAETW
T2 sequence (Q9UEE5 whole entry): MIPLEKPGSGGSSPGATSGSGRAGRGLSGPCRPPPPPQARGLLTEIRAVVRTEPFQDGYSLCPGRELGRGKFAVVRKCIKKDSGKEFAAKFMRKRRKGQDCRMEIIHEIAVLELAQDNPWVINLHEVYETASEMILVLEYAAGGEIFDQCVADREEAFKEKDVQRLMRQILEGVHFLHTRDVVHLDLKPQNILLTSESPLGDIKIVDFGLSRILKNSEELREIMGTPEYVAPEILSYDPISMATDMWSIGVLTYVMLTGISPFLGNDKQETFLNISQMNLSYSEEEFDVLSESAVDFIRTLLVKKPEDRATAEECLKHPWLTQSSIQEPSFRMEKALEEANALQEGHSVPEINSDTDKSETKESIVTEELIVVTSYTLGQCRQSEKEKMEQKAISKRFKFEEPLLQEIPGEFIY
T5 sequence (Q16620 whole entry): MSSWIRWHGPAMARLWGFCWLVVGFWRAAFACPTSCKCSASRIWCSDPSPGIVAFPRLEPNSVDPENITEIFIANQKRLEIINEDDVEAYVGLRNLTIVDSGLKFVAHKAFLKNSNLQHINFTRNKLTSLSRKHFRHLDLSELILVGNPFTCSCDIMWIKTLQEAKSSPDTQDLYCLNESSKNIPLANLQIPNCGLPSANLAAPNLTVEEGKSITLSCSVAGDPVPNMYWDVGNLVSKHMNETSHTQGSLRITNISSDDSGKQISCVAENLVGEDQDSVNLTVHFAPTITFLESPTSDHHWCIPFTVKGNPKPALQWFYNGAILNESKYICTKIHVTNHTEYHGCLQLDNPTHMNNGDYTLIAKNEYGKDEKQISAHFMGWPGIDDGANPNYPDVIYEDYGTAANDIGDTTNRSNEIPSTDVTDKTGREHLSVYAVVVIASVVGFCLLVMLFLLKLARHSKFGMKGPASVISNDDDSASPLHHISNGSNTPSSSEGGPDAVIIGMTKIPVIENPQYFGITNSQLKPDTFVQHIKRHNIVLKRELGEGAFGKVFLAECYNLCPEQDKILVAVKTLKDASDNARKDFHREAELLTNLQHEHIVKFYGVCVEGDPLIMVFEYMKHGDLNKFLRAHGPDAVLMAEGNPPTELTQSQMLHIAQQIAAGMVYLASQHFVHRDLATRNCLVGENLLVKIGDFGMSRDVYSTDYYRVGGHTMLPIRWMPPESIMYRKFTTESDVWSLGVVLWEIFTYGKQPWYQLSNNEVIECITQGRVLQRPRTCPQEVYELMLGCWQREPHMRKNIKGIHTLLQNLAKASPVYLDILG

Which results are given for `Cc1ncccc1Oc1sc(C(N)=O)c2c1-c1c(cnn1C)CC2` [T-474, 1-methyl-8-((2-methylpyridin-3-yl)oxy)-4,5-dihydro-1H-thieno[3,4-g]indazole-6-carboxamide]?
remaining binding at 0.3 µM (AAK1): 93%; remaining binding at 0.3 µM [1]: 100%; remaining binding at 0.3 µM (DDR2): 100%; remaining binding at 0.3 µM (DRAK1): 100%; remaining binding at 0.3 µM (ERBB3): 78%; remaining binding at 0.3 µM (FGFR4): 97%; remaining binding at 0.3 µM (FGR): 100%; remaining binding at 0.3 µM (FYN): 100%; remaining binding at 0.3 µM (LATS1): 67%; remaining binding at 0.3 µM (MKNK1): 50%; remaining binding at 0.3 µM (PAK1): 94%; remaining binding at 0.3 µM (PHKG2): 88%; remaining binding at 0.3 µM (PIK3CA(I800L)): 77%; remaining binding at 0.3 µM (PIP5K2C): 74%; remaining binding at 0.3 µM (PRKD1): 96%; remaining binding at 0.3 µM (RET(V804M)): 100%; remaining binding at 0.3 µM [2]: 100%; remaining binding at 0.3 µM (STK35): 100%; remaining binding at 0.3 µM (TGFBR1): 81%; remaining binding at 0.3 µM (TRKB): 92%; remaining binding at 0.3 µM (TXK): 66%; remaining binding at 0.3 µM (WNK3): 100%

Which results are given for `O=C(/C=C/c1cnccc1-c1ccc(F)cc1)Nc1ccc(CCc2nnco2)cc1` [T-418, (2E)-3-(4-(4-fluorophenyl)pyridin-3-yl)-N-(4-(2-(1,3,4-oxadiazol-2-yl)ethyl)phenyl)acrylamide]?
remaining binding at 0.3 µM (AAK1; sheet T-418): 83%; remaining binding at 0.3 µM ([1]; sheet T-418): 100%; remaining binding at 0.3 µM (DDR2; sheet T-418): 100%; remaining binding at 0.3 µM (DRAK1; sheet T-418): 100%; remaining binding at 0.3 µM (ERBB3; sheet T-418): 76%; remaining binding at 0.3 µM (FGFR4; sheet T-418): 80%; remaining binding at 0.3 µM (FGR; sheet T-418): 93%; remaining binding at 0.3 µM (FYN; sheet T-418): 100%; remaining binding at 0.3 µM (LATS1; sheet T-418): 60%; remaining binding at 0.3 µM (MKNK1; sheet T-418): 44%; remaining binding at 0.3 µM (PAK1; sheet T-418): 76%; remaining binding at 0.3 µM (PHKG2; sheet T-418): 71%; remaining binding at 0.3 µM (PIK3CA(I800L); sheet T-418): 51%; remaining binding at 0.3 µM (PIP5K2C; sheet T-418): 74%; remaining binding at 0.3 µM (PRKD1; sheet T-418): 96%; remaining binding at 0.3 µM (RET(V804M); sheet T-418): 100%; remaining binding at 0.3 µM ([2]; sheet T-418): 80%; remaining binding at 0.3 µM (STK35; sheet T-418): 98%; remaining binding at 0.3 µM (TGFBR1; sheet T-418): 94%; remaining binding at 0.3 µM (TRKB; sheet T-418): 100%; remaining binding at 0.3 µM (TXK; sheet T-418): 72%; remaining binding at 0.3 µM (WNK3; sheet T-418): 100%
